Consider eleven molecules from patent US20060121498A1, “Enzymes involved in apoptosis” (EiRx Therapeutics Limited, priority 2003, published 2006).

Read-outs that look alike come from different tables or passages of the source.

The conditions of series [1]: cited from earlier work.
The subject of series [2] is neutrophils. Nature of the series: Neutrophil apoptosis, sub G1 analysis (DNA fragmentation). The format is cell-based, human. The protocol: Neutrophils are isolated from the blood as described in WO 02/04657 and resuspended at a concentration of 2×10^6/ml. Five hundred microlitres are pipetted into wells of a 24 well plate and incubated in the presence or absence of survival factors.
After this incubation, the neutrophils are carefully resuspended by gentle agitation and the total contents of the well are placed into an eppendorf and centrifuged @2800 rpm for 2 min @ RT in a minifuge. The cell pellet is carefully resuspended in 300 μl of ice cold hypotonic fluorochrome solution (50 μg/ml Propidium Iodide, 0.1% Sodium Citrate and 0.1% Triton X-100) and placed in a fridge for 24 h @ 4° C.
Prepared samples are analysed with a FacsCalibre flow cytometer (Becton Dickinson) using double discrimination to ensure single cell suspension with Log Forward and Side Scatter Parameter acquisition.
Neutrophils are seeded at 2×10^6/ml in a 24 well plate in full culture medium (1 ml/well). A PI3K inhibitor (Ly94002) is added to the neutrophils to a final concentration of 20 μM prior to the addition of GM-CSF (50 units/ml). Control wells received either no GM-CSF or GM-CSF (50 units/ml) in the absence of inhibitor. Neutrophils are cultured for 18 h at 37° C. prior to harvest and prepared for sub G1 analysis, as previously described.
Neutrophils are seeded at 2×10^6/ml in a 24 well plate in full culture medium (1 ml/well). […]

For series [3], the system named is CAL27 tumour cell line. As to conditions: relatively low basal DPD activity; cited from earlier work.
Series [4] deals with MIAPaCa-2 and HuTu80. To be noted: cited from earlier work.
Series [5] relates to MIAPaCa-2 cells. As to conditions: nude mouse, subcutaneous MIAPaCa-2; cited from earlier work.
For series [6], the system named is Walker 256 tumour. As to conditions: diet of 5.5% GLA; cited from earlier work.
The test system of series [7] is bone marrow derived DC. As to conditions: pretreatment; cited from earlier work.
Series [8] has as its system MCF-7 human breast cancer cells. As to conditions: inhibition of FAS with cerulenin; cited from earlier work.
Series [9] concerns redox related genes such as heme oxygenase 1 and Glutathione reductase. To be noted: cited from earlier work.
For series [10], the system named is TF-1 cells. Kind of series: Overexpression of identified genes in TF1 cells, viability by FSc/SSc. The format is cell-based, human. As to conditions: 96 h post transduction, versus control plasmid Pms*H. From the text: To assess the apoptotic activity of the apoptosis-associated genes identified herein, TF1 cells are transduced with either a plasmid expressing the gene of interest coding sequence or a control plasmid (PMs*H). The gene coding sequence encoding the amino acid sequence set out in Table 1 is cloned into the retroviral expression vector pMSCV (Clontech). Plasmids are transfected into the retroviral packaging cell line Phoenix 293 (Standford) using the CalPhos Mammalian Transfection Kit (Clontech) according to the manufacturer's instructions. Retrovirus is harvested 72 hours later. Retrovirus is transduced to TF 1 cells by incubation for 18 hours. Media is changed and cells are incubated for an additional 96 hours.
The cells are examined for viability after 96 hours using forward scatter/side scatter parameters.

Series [11] has as its system TF-1 cells. Nature of the series: TF-1 apoptosis by light scatter analysis (live gate). The format is cell-based, human. As to conditions: 48 h with GM-CSF 2 ng/ml (35% upon factor withdrawal). The protocol:
Light Scatter Analysis takes advantage of the fact that by using the laser beam of a flow cytometer one can determine the size (Forward Scatter) and granularity (Side Scatter) of a cell. The morphological changes associated with apoptosis, such as decreased size (shrinkage) and granularity affect these parameters. As a consequence, cells undergoing apoptosis will move to the left and slightly down, from the parameters of a healthy population.
TF-1 cells are plated into 24 well plates (2×10^5/ml) and are cultured for 48 h in the presence or absence of GM-CSF (2 ng/ml). Cells are then harvested by centrifugation (1000 rpm, for 10 min) and washed in PBS. The pellet is resuspended in PBS (2×10^5 cells/ml) and acquired by a FacsCalibre. Forward and Side scatter parameters are assessed using Cell Quest software.
Culturing TF-1 cells in the absence of GM-CSF induces cell death. This death induces morphological changes in the Forward and Side Scatter parameters that is detected by FacsCalibre analysis. Consequently, by observing the percentage of cells in the live gate (which is an arbitrary region pre-set on a healthy population of TF-1 cells grown in the presence of GM-CSF (2 ng/ml)), one observes that there is a decrease in the percentage of cells with these light scatter parameters, when cytokine is withdrawn.

Series [12] deals with TF-1 cells. Nature of the series: TF-1 apoptosis by sub G1 analysis. The series is classed as cell-based, human. To be noted: 48 h with GM-CSF (approximately 55% in its absence). As for the experimental part: TF-1 cells are cultured for 48 h in the presence or absence of GM-CSF (2 ng/ml). Cells are then harvested by centrifugation (1000 rpm, for 10 min) and washed in PBS. The pellet is resuspended in PBS (2×10^5 cells/ml) and 1 ml is then added in a dropwise fashion to ice cold 70% EtoH whilst continuously vortexing. Cells are then permeabilized by incubating at −20° C. for 24 h. To stain DNA, cells are centrifuged and washed in PBS. Cells are resuspended in 500 μl Propidium Iodide Buffer (Propidium iodide (50 μg/ml; Sigma); RNAse A (50 μg/ml; Sigma) in Phosphate Buffered Saline (PBS; Sigma) for 15 min in the dark before flow cytometric analysis using a FacsCalibre (Becton Dickinson). Analysis is performed using Cell Quest software.

Setting [13] is: relatively high basal DPD activity.

As for `O=c1[nH]cc(F)c(=O)[nH]1` [5FU, 5-fluorouracil], the “patients suffering from grade IV neutropenia” value is listed as 55% in series [1] (patients with a decreased DPD activity) and 13% in series [1] (patients with a normal DPD activity).
In the case of `CCCCCCCCCCCCCCCCCCOC(=O)OC1C(O)C(O)C(CO)C(O)C1OC` (stereo not shown) [AKT inhibitor], the “GM-CSF mediated survival, sub G1 analysis” value in series [2] (inhibitor 20 μM plus GM-CSF 50 units/ml, 18 h) is recorded as “survival is abrogated”.
As for `Oc1cc(O)c(Cl)cn1` [CDHP, 5-chloro-2,4-dihydroxypyridine], the 5-FU cytotoxicity entry in [3] was “did not have any effect on 5-FU cytotoxicity”; in [4] (setting [13]) it was “enhanced 5-FU cytotoxicity in a concentration-dependent manner”. Also, the “molar ratio (CDHP:5-FU) at maximum effect” value in series [4] (enhancement of 5-FU cytotoxicity) was “more than 0.2”. In series [4] (in vitro study), the “cell proliferation, CDHP by itself” value is reported as “did not influence cell proliferation by itself”. In addition, the “5-fluorouracil (5-FU) degradation” value in [4] (setting [13]) is “inhibit 5-fluorouracil (5-FU) degradation”.
In the case of `O=c1[nH]c(=O)n(C2CCCO2)cc1F` (stereo not shown) [FT, tegafur], the tumour growth inhibition in [5] was 21+/−25%.
In the case of `CCCCC/C=C\C/C=C\C/C=C\CCCCC(=O)O` [GLA, Gamma-linolenic acid], in series [6], the “decrease in CTP1 activity” value is given as 62% and the “reduction of tumour growth” value was 45%.
As to `N[C@H]1CONC1=O` [L-cycloserine], the “endogenous ceramide levels and tumor-induced DC apoptosis” value in series [7] is “reduced endogenous ceramide levels and protected DC from tumor-induced apoptosis”.
On to `CCCCCCCCCCCCCC(=O)O[C@@H]1[C@@H](C)[C@@]2(O)[C@@H](C=C(CO)C[C@]3(O)C(=O)C(C)=C[C@@H]23)[C@@H]2C(C)(C)[C@]12OC(C)=O` [PMA], for which the “endogenous ceramide levels and tumor-induced DC apoptosis” value in [7] is “reduced endogenous ceramide levels and protected DC from tumor-induced apoptosis”.
Turning to `C/C=C/C/C=C/CCC(=O)[C@H]1O[C@H]1C(N)=O` [cerulenin], in [8], the “CPT-1 and fatty acid oxidation” value was “causes carnitine palmitoyltransferase-1 (CPT-1) inhibition and fatty acid oxidation inhibition”.
On to `CCOC(=O)[C@@]1(CCCCCCOc2ccc(Cl)cc2)CO1` [etomoxir], for which, in [9], the “expression of redox related genes” value is “induces up regulation of redox related genes”.
In the case of ELAFIN, in [10], the “apoptosis/viability by FSc/SSc parameters” value is “induces apoptosis in TF-1 cells”.
In the case of “GM-CSF: 22 kDa proinflammatory cytokine released by several activated cell types including monocytes and T cells”, in [2] (neutrophils cultured overnight with GM-CSF (65% without)), the “percentage of cells with a sub G1 profile” value is reported as 9.7%. Moreover, the “percentage of cells in the live gate” value in series [11] is reported as 77%. Also, the “cells with sub-G1 profiles” value in [12] is 5%.
